In US9556205B2, “Fungicide N-[(trisubstitutedsilyl)methyl]-carboxamide derivatives” (BAYER INTELLECTUAL PROPERTY GMBH, priority 2010, dated 2017):

Experiments:
[1] = test system: Puccinia recondita; assay: In vivo test on Puccinia recondita (wheat brown rust), Example I; details: wheat (Scipion variety), 500 ppm of active ingredient, grading 10 days after contamination
[2] = log P by HPLC on reversed-phase column (C18), EEC Directive 79/831 Annex V.A8; assay type: physicochemical; details: 40° C., 0.1% aqueous formic acid and acetonitrile, linear gradient 10% to 90% acetonitrile
Procedure: In table 1, the log P values were determined in accordance with EEC Directive 79/831 Annex V.A8 by HPLC (High Performance Liquid Chromatography) on a reversed-phase column (C18), using the method described below:
Temperature: 40° C.; Mobile phases: 0.1% aqueous formic acid and acetonitrile; linear gradient from 10% acetonitrile to 90% acetonitrile.
Calibration was carried out using unbranched alkan-2-ones (comprising 3 to 16 carbon atoms) with known log P values (determination of the log P values by the retention times using linear interpolation between two successive alkanones). lambda-max-values were determined using UV-spectra from 200 nm to 400 nm and the peak values of the chromatographic signals.

[3] = test system: Alternaria solani; assay: In vivo preventive test on Alternaria solani (tomato); details: for Efficacy: 500 ppm of active ingredient, evaluated 7 days after inoculation; for disease control: 500 ppm, comparison with prior-art compound
Procedure: Solvent: 49 parts by weight of N,N-dimethylformamide Emulsifier: 1 part by weight of Alkylarylpolyglycolether To produce a suitable preparation of active compound, 1 part by weight of active compound is mixed with the stated amounts of solvent and emulsifier, and the concentrate is diluted with water to the desired concentration. To test for preventive activity, young plants are sprayed with the preparation of active compound at the stated rate of application. One day after this treatment, the plants are inoculated with an aqueous spore suspension of Alternaria solani. […] Then the plants are placed in an incubation cabinet at approximately 20° C. and a relative atmospheric humidity of 96%.

[4] = test system: Pyrenophora teres; assay: In vivo preventive test on Pyrenophora teres (barley), Example F; details: for Efficacy: 500 ppm of active ingredient, evaluated 7-9 days after inoculation; for disease control: 500 ppm, comparison with prior-art compound
Procedure: (§1) Solvent: 49 parts by weight of N,N-dimethylformamide Emulsifier: 1 part by weight of alkylaryl polyglycol ether To produce a suitable preparation of active compound, 1 part by weight of active compound is mixed with the stated amounts of solvent and emulsifier, and the concentrate is diluted with water to the desired concentration. To test for preventive activity, young plants are sprayed with the preparation of active compound at the stated rate of application. One day after this treatment, the plants are inoculated with an aqueous spore suspension of Pyrenophora teres. […] Then the plants are placed in a greenhouse at a temperature of approximately 20° C. and a relative atmospheric humidity of approximately 80%.

[5] = test system: Puccinia recondita; assay: In vivo preventive test on Puccinia recondita (wheat), Example H; details: 500 ppm, evaluated 7-9 days after inoculation
Procedure: as §1, with “N,N-dimethylacetamide” for “N,N-dimethylformamide”, “Puccinia recondita.” for “Pyrenophora teres.”

[6] = test system: Venturia inaequalis; assay: In vivo preventive test on Venturia inaequalis (apple scab); details: 100 ppm of active ingredient, evaluated 10 days after inoculation
Procedure: Solvent: 24.5 parts by weight of acetone • 24.5 parts by weight of N,N-dimethylacetamide Emulsifier: 1 part by weight of alkylaryl polyglycol ether To produce a suitable preparation of active compound, 1 part by weight of active compound is mixed with the stated amounts of solvent and emulsifier, and the concentrate is diluted with water to the desired concentration. To test for protective activity, young plants are sprayed with the preparation of active compound at the stated rate of application. […] The plants are then placed in a greenhouse at approximately 21° C. and a relative atmospheric humidity of approximately 90%.

[7] = test system: Leptosphaeria nodorum; assay: In vivo preventive test on Leptosphaeria nodorum (wheat); details: 500 ppm of active ingredient, evaluated 8 days after inoculation
Procedure: Solvent: 49 parts by weight of N,N-dimethylacetamide Emulsifier: 1 part by weight of alkylaryl polyglycol ether To produce a suitable preparation of active compound, 1 part by weight of active compound or the compound combination is mixed with the stated amounts of solvent and emulsifier, and the concentrate is diluted with water to the desired concentration. To test for protective activity, young plants are sprayed with a preparation of active compound or active compound combination at the stated rate of application. After the spray coating has dried on, the plants are sprayed with a spore suspension of Leptosphaeria nodorum. […] The plants are placed in a greenhouse at a temperature of approximately 15° C. and a relative atmospheric humidity of approximately 80%.

[8] = test system: Septoria tritici; assay: In vivo preventive test on Septoria tritici (wheat); details: 500 ppm of active ingredient, evaluated 21 days after inoculation
Procedure: Solvent: 49 parts by weight of N,N-dimethylacetamide Emulsifier: 1 part by weight of alkylaryl polyglycol ether To produce a suitable preparation of active compound, 1 part by weight of active compound or active compound combination is mixed with the stated amounts of solvent and emulsifier, and the concentrate is diluted with water to the desired concentration. To test for preventive activity, young plants are sprayed with the preparation of active compound or active compound combination at the stated rate of application. After the spray coating has dried on, the plants are sprayed with a spore suspension of Septoria tritici. […] The plants are placed in a greenhouse at a temperature of approximately 15° C. and a relative atmospheric humidity of approximately 80%.

[9] = test system: Phakopsora pachyrhizi; assay: In vivo protective test on Phakopsora pachyrhizi (soybean rust); details: 250 ppm of active ingredient, evaluated 11 days after inoculation
Procedure: Solvent: 28.5 parts by weight of acetone
Emulsifier: 1.5 parts by weight of polyoxyethylene alkyl phenyl ether
(§2) To produce a suitable preparation of active compound, 1 part by weight of active compound is mixed with the stated amounts of solvent and emulsifier, and the concentrate is diluted with water to the desired concentration.
To test for protective activity, young plants are sprayed with the preparation of active compound at the stated rate of application. One day after spraying, the plants are inoculated with an aqueous spore suspension of the causal agent of soybean rust (Phakopsora pachyrhizi). The plants are then placed in a greenhouse at approximately 20° C. and a relative atmospheric humidity of approximately 80%.
The test is evaluated 11 days after the inoculation. 0% means an efficacy which corresponds to that of the control, while an efficacy of 100% means that no disease is observed.
Under these conditions, good (at least 80%) to total protection is observed at a dose of 250 ppm of active ingredient with the following compounds from table G: […]

[10] = test system: Aflatoxins production by Aspergillus parasiticus; assay type: cell-based
[11] = test system: Aspergillus parasiticus; assay type: cell-based; details: 7 days at 20° C., OD620nm
[12] = test system: Botrytis cinerea; assay: In vivo preventive test on Botrytis cinerea (beans); details: 500 ppm of active ingredient, lesion size 2 days after inoculation
Procedure: Solvent: 24.5 parts by weight of acetone
• 24.5 parts by weight of N,N-dimethylacetamide Emulsifier: 1 part by weight of alkylaryl polyglycol ether
as §2
To test for protective activity, young plants are sprayed with the preparation of active compound. After the spray coating has dried on, 2 small pieces of agar covered with growth of Botrytis cinerea are placed on each leaf. The inoculated plants are placed in a darkened chamber at 20° C. and a relative atmospheric humidity of 100%.
2 days after the inoculation, the size of the lesions on the leaves is evaluated. 0% means an efficacy which corresponds to that of the control, while an efficacy of 100% means that no disease is observed. Under these conditions, excellent (at least 95%) to total protection is observed at a dose of 500 ppm of active ingredient with the following compounds from table C: […]

| SMILES | protection [1] | logP [2] | Efficacy [3] [%] | disease control [3] [%] | Efficacy [4] [%] | disease control [4] [%] | disease control [5] [%] | Efficacy [6] [%] | Efficacy [7] [%] | Efficacy [8] [%] | Efficacy [9] [%] | % Inhibition of Aflatoxin at 50 μM [10] [%] | % Inhibition of fungal growth at 50 μM [11] [%] | Efficacy [12] [%] |
| --- | --- | --- | --- | --- | --- | --- | --- | --- | --- | --- | --- | --- | --- | --- |
| CCc1nn(C)c(F)c1C(=O)N(C[Si](C)(C)c1ccccc1)C1CC1 [Example 7] | at least 70% | 3.64 |  |  |  |  |  |  |  |  |  |  |  |  |
| Cn1nc(C(F)F)c(C(=O)N(C[Si](C)(C)c2ccccc2)C2CCCCC2)c1F [Example 11] |  | 4.86 | 90 | 90 | 70 | 70 | 80 |  |  |  |  |  |  |  |
| Cc1cc(C(=O)N(C[Si](C)(C)c2ccccc2)C2CCCCC2)c(C)o1 [Example 12] |  | 5.62 | 80 | 80 | 70 | 70 | 40 |  |  |  |  |  |  |  |
| Cn1nc(C(F)F)c(C(=O)N(C[Si](C)(C)c2ccccc2Cl)C2CC2)c1F [Example 18] |  | 4.13 | 100 |  | 100 |  |  | 99 | 100 | 100 | 80 | 100 | 100 |  |
| Cn1nc(C(F)F)c(C(=O)N(C[Si](C)(C)c2cccc(Cl)c2)C2CC2)c1F [Example 31] |  | 4.18 | 100 |  | 100 |  |  | 100 | 100 | 100 | 100 | 100 | 100 | 95 |
| Cn1nc(C(F)F)c(C(=O)N(C[Si](C)(C)c2ccc(Cl)cc2Cl)C2CC2)c1F [Example 38] |  | 4.78 | 94 |  | 100 |  |  | 100 | 100 | 100 | 85 | 100 | 100 | 95 |
| Cn1nc(C(F)F)c(C(=O)N(C[Si](C)(C)c2cc(Cl)cc(Cl)c2)C2CC2)c1F [Example 52] |  | 4.78 | 100 |  | 100 |  |  | 100 | 100 | 100 | 99 | 100 | 100 | 100 |
| C[Si](C)(CN(C(=O)c1ccco1)C1CCCCC1)c1ccccc1 [N-cyclohexyl-N-{[dimethyl(phenyl)silyl]methyl}-2-furamide, reference compound] |  |  |  | 0 |  | 0 | 10 |  |  |  |  |  |  |  |
